Data as given in ChEMBL document CHEMBL3045441, “Microwave-assisted CAN-catalyzed solvent-free synthesis of N-allyl quinolone-based pyrano[4,3-b]chromene and benzopyrano[3,2-c]chromene derivatives and their antimicrobial activity” (2013).
Values after ≈ are worked out from the molar mass of the structure shown.

Tests used:
Assay type in all cases: functional
[1] = tested on: Streptococcus pyogenes; test: Antimicrobial activity against Streptococcus pyogenes MTCC 442 assessed as growth inhibition after 24 hr by NCCLS broth microdilution method; conditions: MTCC 442, 24 h
[2] = tested on: Escherichia coli; test: Antimicrobial activity against Escherichia coli MTCC 443 assessed as growth inhibition after 24 hr by NCCLS broth microdilution method; conditions: MTCC 443, 24 h
[3] = tested on: Staphylococcus aureus; test: Antimicrobial activity against Staphylococcus aureus MTCC 96 assessed as growth inhibition after 24 hr by NCCLS broth microdilution method; conditions: MTCC 96, 24 h
[4] = tested on: Aspergillus clavatus; test: Antimicrobial activity against Aspergillus clavatus MTCC 1323 assessed as growth inhibition after 48 hr by NCCLS broth microdilution method; conditions: MTCC 1323, 48 h
[5] = tested on: Pseudomonas aeruginosa; test: Antimicrobial activity against Pseudomonas aeruginosa MTCC 1688 assessed as growth inhibition after 24 hr by NCCLS broth microdilution method; conditions: MTCC 1688, 24 h
[6] = tested on: Aspergillus niger; test: Antimicrobial activity against Aspergillus niger MTCC 282 assessed as growth inhibition after 48 hr by NCCLS broth microdilution method; conditions: MTCC 282, 48 h
[7] = tested on: Candida albicans; test: Antimicrobial activity against Candida albicans MTCC 227 assessed as growth inhibition after 48 hr by NCCLS broth microdilution method; conditions: MTCC 227, 48 h

Row | Compound | MIC [1] | MIC [2] | MIC [3] | MIC [4] | MIC [5] | MIC [6] | MIC [7]
1 | C=CCn1c(=O)c(C2C3=C(CC(C)(C)CC3=O)Oc3c2c(=O)oc2ccccc32)cc2cc(C)ccc21 (centres undefined) | 250 mg/L (≈ 507 µM) | 200 mg/L (≈ 405 µM) | 125 mg/L (≈ 253 µM) | 500 mg/L (≈ 1010 µM) | 50 mg/L (≈ 101 µM) | 500 mg/L (≈ 1010 µM) | 500 mg/L (≈ 1010 µM)
2 | C=CCn1c(=O)c(C2C3=C(CC(C)(C)CC3=O)Oc3cc(C)oc(=O)c32)cc2ccccc21 (centres undefined) | 250 mg/L (≈ 564 µM) | 100 mg/L (≈ 225 µM) | 500 mg/L (≈ 1130 µM) | 500 mg/L (≈ 1130 µM) | 62.5 mg/L (≈ 141 µM) | 500 mg/L (≈ 1130 µM) | 500 mg/L (≈ 1130 µM)
3 | C=CCn1c(=O)c(C2C3=C(CCCC3=O)Oc3cc(C)oc(=O)c32)cc2ccccc21 (centres undefined) | 250 mg/L (≈ 602 µM) | 125 mg/L (≈ 301 µM) | 250 mg/L (≈ 602 µM) | 200 mg/L (≈ 481 µM) | 200 mg/L (≈ 481 µM) | 200 mg/L (≈ 481 µM) | 500 mg/L (≈ 1200 µM)
4 | C=CCn1c(=O)c(C2C3=C(CC(C)(C)CC3=O)Oc3c2c(=O)oc2ccccc32)cc2ccccc21 (centres undefined) | 500 mg/L (≈ 1040 µM) | 500 mg/L (≈ 1040 µM) | 250 mg/L (≈ 521 µM) | 1000 mg/L (≈ 2090 µM) | 250 mg/L (≈ 521 µM) | 1000 mg/L (≈ 2090 µM) | 250 mg/L (≈ 521 µM)
5 | C=CCn1c(=O)c(C2C3=C(CC(C)(C)CC3=O)Oc3c2c(=O)oc2ccccc32)cc2cc(OC)ccc21 (centres undefined) | 125 mg/L (≈ 245 µM) | 250 mg/L (≈ 491 µM) | 125 mg/L (≈ 245 µM) | > 1000 mg/L | 125 mg/L (≈ 245 µM) | > 1000 mg/L | 500 mg/L (≈ 981 µM)
6 | C=CCn1c(=O)c(C2C3=C(CCCC3=O)Oc3cc(C)oc(=O)c32)cc2cc(C)ccc21 (centres undefined) | 500 mg/L (≈ 1160 µM) | 125 mg/L (≈ 291 µM) | 500 mg/L (≈ 1160 µM) | 1000 mg/L (≈ 2330 µM) | 250 mg/L (≈ 582 µM) | 500 mg/L (≈ 1160 µM) | 1000 mg/L (≈ 2330 µM)
7 | O=C(O)c1cn(C2CC2)c2cc(N3CCNCC3)c(F)cc2c1=O [CIPROFLOXACIN] | 50 mg/L (≈ 151 µM) | 25 mg/L (≈ 75.4 µM) | 50 mg/L (≈ 151 µM) | – | – | – | –
8 | C=CCn1c(=O)c(C2C3=C(CCCC3=O)Oc3c2c(=O)oc2ccccc32)cc2cc(OC)ccc21 (centres undefined) | 500 mg/L (≈ 1040 µM) | 100 mg/L (≈ 208 µM) | 62.5 mg/L (≈ 130 µM) | 1000 mg/L (≈ 2080 µM) | 62.5 mg/L (≈ 130 µM) | 1000 mg/L (≈ 2080 µM) | 500 mg/L (≈ 1040 µM)
9 | COC1=CC(=O)C[C@@H](C)[C@]12Oc1c(Cl)c(OC)cc(OC)c1C2=O [GRISEOFULVIN] | – | – | – | 100 mg/L (≈ 283 µM) | – | 100 mg/L (≈ 283 µM) | 500 mg/L (≈ 1420 µM)
10 | C=CCn1c(=O)c(C2C3=C(CC(C)(C)CC3=O)Oc3cc(C)oc(=O)c32)cc2cc(Cl)ccc21 (centres undefined) | 125 mg/L (≈ 262 µM) | 250 mg/L (≈ 523 µM) | 125 mg/L (≈ 262 µM) | > 1000 mg/L | 500 mg/L (≈ 1050 µM) | > 1000 mg/L | 1000 mg/L (≈ 2090 µM)
11 | C=CCn1c(=O)c(C2C3=C(CCCC3=O)Oc3c2c(=O)oc2ccccc32)cc2ccccc21 (centres undefined) | 200 mg/L (≈ 443 µM) | 62.5 mg/L (≈ 138 µM) | 200 mg/L (≈ 443 µM) | > 1000 mg/L | 100 mg/L (≈ 221 µM) | > 1000 mg/L | 500 mg/L (≈ 1110 µM)
